Data from US9695192B2, “Fused heterocyclic compounds as ion channel modulators” (GILEAD SCIENCES, INC., priority 2011, dated 2017).

Tests used:
Type in all cases: cell-based
human Nav1.1 = biological target: T1, human Nav1.1 (Homo sapiens, UniProt P35498); experiment: Nav1.1 use-dependent block, whole-cell voltage clamp, 10 Hz pulse train; settings: Chantest conditions, read-out: NAV1.1 UDB-10 HZ % Inhibition
T1 construct: expressed in transfected cells; host or cells: HEK293, transient transfection (Qiagen Superfect), α1:β1:β2 at 10:1:1

hNav1.2 sodium channel = biological target: T2, hNav1.2 sodium channel (Homo sapiens, UniProt Q99250); experiment: Nav1.2 use-dependent block, whole-cell voltage clamp, 10 Hz pulse train; settings: Chantest conditions, read-out: NAV1.2 UDB-10 HZ % Inhibition
T2 construct: expressed in transfected cells
T2 sequence (Q99250 whole entry): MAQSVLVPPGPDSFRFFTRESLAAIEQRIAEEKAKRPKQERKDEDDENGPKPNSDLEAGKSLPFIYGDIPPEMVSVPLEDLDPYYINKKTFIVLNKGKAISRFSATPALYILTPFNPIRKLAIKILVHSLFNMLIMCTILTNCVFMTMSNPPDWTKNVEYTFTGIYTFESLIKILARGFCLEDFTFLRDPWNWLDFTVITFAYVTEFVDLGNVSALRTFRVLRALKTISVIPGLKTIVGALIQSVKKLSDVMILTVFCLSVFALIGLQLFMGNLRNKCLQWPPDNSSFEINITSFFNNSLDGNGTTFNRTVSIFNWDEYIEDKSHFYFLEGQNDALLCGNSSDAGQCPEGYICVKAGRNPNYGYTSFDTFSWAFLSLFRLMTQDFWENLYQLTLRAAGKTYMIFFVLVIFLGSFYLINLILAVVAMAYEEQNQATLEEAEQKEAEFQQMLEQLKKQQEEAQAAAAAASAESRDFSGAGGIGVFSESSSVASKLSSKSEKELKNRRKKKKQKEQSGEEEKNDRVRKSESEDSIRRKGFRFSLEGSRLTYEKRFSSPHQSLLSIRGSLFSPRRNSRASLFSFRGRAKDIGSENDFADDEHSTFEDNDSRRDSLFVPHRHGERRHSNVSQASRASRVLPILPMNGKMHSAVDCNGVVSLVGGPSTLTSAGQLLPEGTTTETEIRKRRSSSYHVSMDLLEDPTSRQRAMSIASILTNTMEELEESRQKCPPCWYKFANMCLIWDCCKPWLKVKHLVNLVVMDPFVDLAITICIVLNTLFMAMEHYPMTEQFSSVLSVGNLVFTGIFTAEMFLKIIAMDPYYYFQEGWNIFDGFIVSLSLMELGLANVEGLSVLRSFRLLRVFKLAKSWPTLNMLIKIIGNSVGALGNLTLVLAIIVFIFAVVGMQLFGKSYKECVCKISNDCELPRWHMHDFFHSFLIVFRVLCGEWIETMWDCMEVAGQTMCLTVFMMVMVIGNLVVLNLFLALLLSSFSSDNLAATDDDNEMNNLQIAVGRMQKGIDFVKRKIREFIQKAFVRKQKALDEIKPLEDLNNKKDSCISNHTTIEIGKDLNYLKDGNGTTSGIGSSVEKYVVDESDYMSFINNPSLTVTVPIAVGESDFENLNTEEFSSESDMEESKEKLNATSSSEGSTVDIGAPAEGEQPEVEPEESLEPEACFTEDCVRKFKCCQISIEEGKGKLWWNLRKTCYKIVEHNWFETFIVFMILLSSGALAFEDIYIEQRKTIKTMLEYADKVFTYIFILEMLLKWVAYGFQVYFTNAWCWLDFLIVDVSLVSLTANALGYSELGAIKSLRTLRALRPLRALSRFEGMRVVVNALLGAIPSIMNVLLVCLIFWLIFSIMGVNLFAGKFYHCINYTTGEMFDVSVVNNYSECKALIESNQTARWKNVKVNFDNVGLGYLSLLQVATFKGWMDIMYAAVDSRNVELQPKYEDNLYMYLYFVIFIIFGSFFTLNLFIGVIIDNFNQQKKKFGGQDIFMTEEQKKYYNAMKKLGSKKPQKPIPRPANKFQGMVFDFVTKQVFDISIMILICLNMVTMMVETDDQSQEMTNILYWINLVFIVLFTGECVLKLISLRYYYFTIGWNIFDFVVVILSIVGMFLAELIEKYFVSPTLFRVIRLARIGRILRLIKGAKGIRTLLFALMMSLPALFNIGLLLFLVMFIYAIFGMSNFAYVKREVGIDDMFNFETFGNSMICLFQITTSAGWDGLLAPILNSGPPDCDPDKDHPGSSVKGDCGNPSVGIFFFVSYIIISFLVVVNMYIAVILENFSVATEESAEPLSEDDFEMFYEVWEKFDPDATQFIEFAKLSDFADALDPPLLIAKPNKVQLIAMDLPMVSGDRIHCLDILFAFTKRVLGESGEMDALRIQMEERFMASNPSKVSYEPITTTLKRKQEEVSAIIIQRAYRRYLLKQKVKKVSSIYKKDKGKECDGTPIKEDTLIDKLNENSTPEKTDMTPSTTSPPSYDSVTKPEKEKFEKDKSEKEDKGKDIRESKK
Description: Wild-type (WT) cDNA stably transfected in Chinese hamster ovary (CHO) cells is used to record INa. Unless otherwise noted, all reagents are purchased from Sigma-Aldrich (St Louis, Mo., U.S.A.).
Whole-cell voltage-clamp recordings are used to measure the biophysical properties of WT. Briefly, the pipette solution consists of (in mM) 110 CsF, 10 NaF, 20 CsCl, 2 EGTA, 10 HEPES, with a pH of 7.35 and osmolarity of 300 mOsmol/kg. The bath (control) solution contains in (mM): 145 NaCl, 4 KCl, 1.8 CaCl2, 1 MgCl2, 10 dextrose, 10 HEPES, with a pH of 7.35 and osmolarity of 310 mOsmol/kg. Cells are allowed to stabilize for 10 min after establishment of the whole-cell configuration before current is measured. Series resistance is compensated 90% to assure that the command potential is reached within microseconds with a voltage error<2 mV. Leak currents are subtracted by using an online P/4 procedure and all currents are low-pass Bessel filtered at 5 kHz and digitized at 50 kHz.
Tonic block of peak current is measured using a step to −10 mV (20 ms) from a holding potential of −120 mV (0.2 Hz). Use-dependent block of peak current is measured during pulse number 300 of a pulse train (−10 mV, 5 ms, 300 pulses, 10 Hz or 25 Hz) from a holding potential of −120 mV. Currents are then normalized to the peak current recorded in response to the first pulse in each frequency train. For tonic block studies, peak current is evaluated in response to a 20 ms depolarization to −10 mV (0.2 Hz). Two sequential pulse train stimulations are averaged to obtain mean current traces for each recording condition, which are then used for offline subtraction and analysis.
A stock solution of 10 mM compound of Formula I is prepared in 0.1 M HCl or DMSO. A fresh dilution of the compound of Formula I in the bath solution is prepared every experimental day and the pH is readjusted to 7.35 as necessary. The final DMSO concentration was kept at 0.1% in all solutions. Direct application of the perfusion solution to the clamped cell is achieved using the Perfusion Pencil system (Automate, Berkeley, Calif.). Direct cell perfusion is driven by gravity at a flow rate of 350 μL/min using a 250 micron tip. This system sequesters the clamped cell within a perfusion stream and enables complete solution exchange within 1 second. The clamped cell is perfused continuously starting immediately after establishing the whole-cell configuration. Control currents are measured during control solution perfusion.
Solutions are perfused for three minutes prior to current recordings to allow equilibrium (tonic) drug block. Tonic block of peak currents is measured from this steady-state condition. Three sequential current traces are averaged to obtain a mean current for each recording. The mean current traces are utilized for offline analysis.

[1] = biological target: wild-type human cardiac sodium channel, hNav1.5 (Homo sapiens, UniProt Q14524); experiment: Late INa screening assay (QPatch whole cell patch clamp, tefluthrin-enhanced late sodium current); settings: HEK293 hNav1.5, late INa activated with 10 μM Tefluthrin
Sequence of wild-type human cardiac sodium channel, hNav1.5 (Q14524 whole entry): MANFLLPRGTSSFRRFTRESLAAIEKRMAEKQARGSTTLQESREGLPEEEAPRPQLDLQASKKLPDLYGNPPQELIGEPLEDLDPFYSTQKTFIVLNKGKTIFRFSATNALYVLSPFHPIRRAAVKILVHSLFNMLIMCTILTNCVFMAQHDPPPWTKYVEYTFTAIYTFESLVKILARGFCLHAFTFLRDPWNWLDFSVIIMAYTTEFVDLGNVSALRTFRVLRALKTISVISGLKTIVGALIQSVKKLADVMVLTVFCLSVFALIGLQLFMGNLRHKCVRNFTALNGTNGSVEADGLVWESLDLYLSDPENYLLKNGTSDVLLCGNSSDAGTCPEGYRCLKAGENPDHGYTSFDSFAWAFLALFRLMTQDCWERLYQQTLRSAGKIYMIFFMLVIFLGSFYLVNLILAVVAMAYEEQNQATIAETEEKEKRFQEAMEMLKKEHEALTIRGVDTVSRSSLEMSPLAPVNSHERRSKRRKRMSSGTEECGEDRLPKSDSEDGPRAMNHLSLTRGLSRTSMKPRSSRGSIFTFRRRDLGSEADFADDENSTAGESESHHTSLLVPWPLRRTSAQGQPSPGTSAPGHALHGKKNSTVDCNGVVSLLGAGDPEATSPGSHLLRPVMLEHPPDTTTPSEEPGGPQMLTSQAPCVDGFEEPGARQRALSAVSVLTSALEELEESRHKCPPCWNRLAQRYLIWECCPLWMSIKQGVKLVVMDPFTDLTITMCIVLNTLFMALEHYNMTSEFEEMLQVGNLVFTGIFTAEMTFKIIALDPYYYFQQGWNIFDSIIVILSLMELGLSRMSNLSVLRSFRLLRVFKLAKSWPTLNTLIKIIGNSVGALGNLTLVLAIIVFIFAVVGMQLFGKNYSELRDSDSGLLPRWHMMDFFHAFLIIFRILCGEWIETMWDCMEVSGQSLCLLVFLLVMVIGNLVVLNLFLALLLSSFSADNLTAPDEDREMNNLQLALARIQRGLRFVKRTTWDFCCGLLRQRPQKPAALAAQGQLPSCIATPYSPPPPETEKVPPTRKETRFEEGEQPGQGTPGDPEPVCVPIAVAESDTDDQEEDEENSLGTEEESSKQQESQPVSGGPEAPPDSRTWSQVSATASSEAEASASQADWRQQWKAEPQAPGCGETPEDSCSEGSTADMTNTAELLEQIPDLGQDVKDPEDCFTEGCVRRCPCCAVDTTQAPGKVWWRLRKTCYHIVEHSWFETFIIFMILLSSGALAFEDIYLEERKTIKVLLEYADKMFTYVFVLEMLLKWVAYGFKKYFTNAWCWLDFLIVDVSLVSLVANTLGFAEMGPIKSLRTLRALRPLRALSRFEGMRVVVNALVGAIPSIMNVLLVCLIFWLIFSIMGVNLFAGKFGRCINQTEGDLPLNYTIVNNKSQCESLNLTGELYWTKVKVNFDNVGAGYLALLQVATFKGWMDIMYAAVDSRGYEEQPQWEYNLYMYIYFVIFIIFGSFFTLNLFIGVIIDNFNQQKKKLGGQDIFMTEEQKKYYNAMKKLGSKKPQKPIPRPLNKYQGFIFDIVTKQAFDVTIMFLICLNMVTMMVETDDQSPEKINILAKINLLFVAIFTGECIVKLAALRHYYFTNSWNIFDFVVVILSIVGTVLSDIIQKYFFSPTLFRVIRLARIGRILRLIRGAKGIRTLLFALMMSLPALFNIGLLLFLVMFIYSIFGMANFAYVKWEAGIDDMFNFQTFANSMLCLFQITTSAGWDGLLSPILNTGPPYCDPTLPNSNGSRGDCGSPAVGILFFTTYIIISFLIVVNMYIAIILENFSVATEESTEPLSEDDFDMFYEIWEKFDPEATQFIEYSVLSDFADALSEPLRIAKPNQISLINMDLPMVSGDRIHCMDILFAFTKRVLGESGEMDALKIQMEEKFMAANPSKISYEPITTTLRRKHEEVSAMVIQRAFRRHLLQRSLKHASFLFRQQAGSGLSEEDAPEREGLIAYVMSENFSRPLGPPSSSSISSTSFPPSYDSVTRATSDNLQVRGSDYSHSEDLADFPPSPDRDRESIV
Summary of the method: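 Automated whole-cell patch clamp of HEK293 cells stably expressing hNav1.5 (no β subunits), 23-25 °C. Late current enhanced by 10 μM tefluthrin, 250 ms steps to −20 mV from −120 mV at 0.1 Hz, measured 225-250 ms. Compounds typically 1 μM, three additions over 7-8 min; % block normalised to 0 Na baseline.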

| Compound | inhibition at 1 µM (human Nav1.1) | inhibition at 1 µM (hNav1.2 sodium channel) | inhibition at 1 µM [1] |
| --- | --- | --- | --- |
| FC(F)(F)c1ccc(-c2ccc3c(c2)-c2nccn2CCO3)cc1 [Compound I-1, 10-(4-(trifluoromethyl)phenyl)-5,6-dihydrobenzo[f]imidazo[1,2-d][1,4]oxazepine] | -12% | 2% | 32% |
| FC(F)(F)Oc1ccc(-c2ccc3c(c2)-c2nccn2CCO3)cc1 [Compound I-2, 10-(4-(trifluoromethoxy)phenyl)-5,6-dihydrobenzo[f]imidazo[1,2-d][1,4]oxazepine] | 1% | 18% | 31% |
| FC(F)(F)c1ccc(-c2ccc3c(c2)-c2ncc(C4CC4)n2CCO3)cc1 [Compound I-9, 3-cyclopropyl-10-(4-(trifluoromethyl)phenyl)-5,6-dihydrobenzo[f]imidazo[1,2-d][1,4]oxazepine] | 4% | 0% | 4% |
| CC(C)(O)c1cnc2n1CCOc1ccc(-c3ccc(C(F)(F)F)cc3)cc1-2 [Compound I-10, 2-(10-(4-(trifluoromethyl)phenyl)-5,6-dihydrobenzo[f]imidazo[1,2-d][1,4]oxazepin-3-yl)propan-2-ol] | -5% | 0% | 10% |
| FC(F)(F)c1ccc(-c2ccc3c(c2)-c2ncc(Cc4ccccc4)n2CCO3)cc1 [Compound I-11, 3-benzyl-10-(4-(trifluoromethyl)phenyl)-5,6-dihydrobenzo[f]imidazo[1,2-d][1,4]oxazepine] | -5% | -5% | 13% |

Continued, in another order:

| inhibition at 1 µM (human Nav1.1) | inhibition at 1 µM (hNav1.2 sodium channel) | Compound | inhibition at 1 µM [1] |
| --- | --- | --- | --- |
| -10% | -3% | Cc1cnc2n1CCOc1ccc(-c3ccc(C(F)(F)F)cc3)cc1-2 [Compound I-6, 3-methyl-10-(4-(trifluoromethyl)phenyl)-5,6-dihydrobenzo[f]imidazo[1,2-d][1,4]oxazepine] | 28% |
| -7% | 6% | FC(F)(F)c1ccc(-c2ccc3c(c2)-c2ncc(Br)n2CCO3)cc1 [Compound I-12, 3-bromo-10-(4-(trifluoromethyl)phenyl)-5,6-dihydrobenzo[f]imidazo[1,2-d][1,4]oxazepine] | 4% |
| -3% | 8% | FC(F)(F)c1ccc(-c2ccc3c(c2)-c2ncc(Cl)n2CCO3)cc1 [Compound I-13, 3-chloro-10-(4-(trifluoromethyl)phenyl)-5,6-dihydrobenzo[f]imidazo[1,2-d][1,4]oxazepine] | 6% |
| 0% | 4% | Cc1c(Cl)nc2n1CCOc1ccc(-c3ccc(C(F)(F)F)cc3)cc1-2 [Compound I-14, 2-chloro-3-methyl-10-(4-(trifluoromethyl)phenyl)-5,6-dihydrobenzo[f]imidazo[1,2-d][1,4]oxazepine] | 11% |
